Source: patent publication US6570068B1, “Methods for maize transformation coupled with adventitious regeneration utilizing nodal section explants and mature zygotic embryos” (Mississippi State University, priority 1997, dated 2003)

Experiments:
nodal ridge explants = assay: Multiple shoot clump formation from nodal ridge explants of seedlings germinated with BA; type: cell-based, corn; settings: 2.0 mg/l BA in germination medium, 4 weeks on shoot initiation medium
Experimental: (§1) In this experiment, the standard germination medium contained 4.3 g/l MS basal salts, DM-Vitamins (1.0 mg/l thiamine-HCl, 0.5 mg/l pyridoxine-HCl, 0.5 mg/l nicotinic acid, 100 mg/l myo-inositol), 30 g/l sucrose, (pH 5.8), and 2.0 mg/l benzyladenine (BA). The standard shoot initiation medium contained 4.3 g/l MS basal salts, DM-vitamins (1.0 mg/l thiamine-HCl, 0.5 mg/l pyridoxine-HCl, 0.5 mg/l nicotinic acid, 100 mg/l myo-inositol), 30 g/l sucrose, 8.0 g/l Phytagar, 0.25 mg/l 4-CPA (para-chlorophenoxyacetic acid), 10 mg/l glycine, 150 mg/l asparagine, and 2.0 mg/l BA. The standard root initiation medium contained 4.3 g/l MS basal salts, DM-vitamins (1.0 mg/l thiamine-HCl, 0.5 mg/l pyridoxine-HCl, 0.5 mg/l nicotinic acid, 100 mg/l myo-inositol), 30 g/l sucrose, 8.0 g/l Phytagar, and ±0.5 mg/l IBA.
As a result, those explants were easier to excise. Explants spanning the seventh node (nodal ridge),with a top excision of 0.5-1.0 mm above the ridge were excised from 4, 7, 14 or 21 day-old seedlings and placed on the shoot initiation medium for 4 weeks. After 4 weeks, 45% of the explants from 7 day-old seedlings (+BA) produced multiple shoot clumps, whereas only 24% of 7 day-old seedlings (−BA) produced multiple shoot clumps. Approximately 3% of the 4 day-old seedlings (+BA) produced multiple shoots. […]

corn seedlings = assay: Seedling growth in germination medium with BA; type: in vivo; settings: for seedling height versus seedlings without BA: 2.0 mg/l BA in germination medium
Experimental: as §1
As a result, those explants were easier to excise. Explants spanning the seventh node (nodal ridge),with a top excision of 0.5-1.0 mm above the ridge were excised from 4, 7, 14 or 21 day-old seedlings and placed on the shoot initiation medium for 4 weeks. After 4 weeks, 45% of the explants from 7 day-old seedlings (+BA) produced multiple shoot clumps, whereas only 24% of 7 day-old seedlings (−BA) produced multiple shoot clumps. Approximately 3% of the 4 day-old seedlings (+BA) produced multiple shoots. Most explants from older seedlings (14 or 21 days) produced only one elongated shoot or 1 shoot with multiple branches. Once placed on the standard root initiation medium, most shoots (85%) rooted and the plants produced were acclimatized and placed under greenhouse conditions where normal flowering and fruiting were observed. Only one out of 29 plants produced was abnormal (i.e., a dwarf with twisted leaves). The explants should remain on the shoot initiation medium for 4 weeks. It was discovered that if the explants are left on the shoot initiation medium for 8 weeks, floral structures appeared.

SMILES: c1ccc(CNc2ncnc3nc[nH]c23)cc1 [BA, benzyladenine]
- seedlings (explants) that produced multiple shoots (nodal ridge explants; 4 day-old seedlings): Approximately 3%
- explants that produced multiple shoot clumps (nodal ridge explants; explants from 7 day-old seedlings): 45%
- seedling height versus seedlings without BA (corn seedlings; 4 day-old seedlings): taller than those without BA
- seedling height versus seedlings without BA (corn seedlings; by 7 days): no appreciable differences in height
- roots at the nodal ridge (corn seedlings; seedlings grown with BA): less roots at the nodal ridge
